Assay results published in patent US6943179B2, “Biurethane derivatives” (Merck Patent GmbH, priority 2001, dated 2005).

Legend:
FXa = FXa (Homo sapiens, UniProt P00742); assay: Factor Xa inhibition (FXa-IC50); type: biochemical
Excerpt: The inhibition of factor Xa by the compounds according to the invention and the measurement of the anticoagulant and antithrombotic activity can be determined by conventional in-vitro or in-vivo methods. A suitable method is described, for example, by J. Hauptmann et al. in Thrombosis and Haemostasis 1990, 63, 220-223.
The inhibition of factor Xa can be measured, for example, by the method of T. Hara et al. in Thromb. Haemostas. 1994, 71, 314-319.

TF/FVIIa = target: T1, TF/FVIIa (Homo sapiens, UniProt P08709); assay: TF/FVIIa inhibition (TF/FVIIa-IC50); type: biochemical
T1 construct: Coagulation factor VIIa initiates the extrinsic part of the coagulation cascade
T1 sequence (P08709 213-466 limits assumed): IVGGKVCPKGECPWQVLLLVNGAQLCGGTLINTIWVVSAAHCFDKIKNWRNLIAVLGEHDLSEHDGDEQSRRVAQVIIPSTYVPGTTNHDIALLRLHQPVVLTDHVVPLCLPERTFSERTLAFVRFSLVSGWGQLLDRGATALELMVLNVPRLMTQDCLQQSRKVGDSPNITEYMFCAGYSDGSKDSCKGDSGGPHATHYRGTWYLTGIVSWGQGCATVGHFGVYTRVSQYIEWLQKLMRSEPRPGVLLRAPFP
T1 sequence (P08709 61-212 limits assumed): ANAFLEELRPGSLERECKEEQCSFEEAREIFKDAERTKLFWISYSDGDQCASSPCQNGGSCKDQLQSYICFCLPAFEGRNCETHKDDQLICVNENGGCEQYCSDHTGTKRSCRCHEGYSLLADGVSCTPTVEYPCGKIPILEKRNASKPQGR
T1 sequence (P13726 33-295 partner): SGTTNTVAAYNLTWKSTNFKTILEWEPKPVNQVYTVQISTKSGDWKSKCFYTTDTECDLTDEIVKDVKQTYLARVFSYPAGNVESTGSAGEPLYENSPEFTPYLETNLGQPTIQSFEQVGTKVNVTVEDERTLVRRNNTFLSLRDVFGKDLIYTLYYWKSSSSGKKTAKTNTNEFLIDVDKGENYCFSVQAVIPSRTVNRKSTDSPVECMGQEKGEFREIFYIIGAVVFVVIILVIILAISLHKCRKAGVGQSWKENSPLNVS
Excerpt: The inhibition of factor VIIa by the compounds according to the invention and the measurement of the anticoagulant and antithrombotic activity can be determined by conventional in-vitro or in-vivo methods. A conventional method for the measurement of the inhibition of factor VIIa is described, for example, by H. F. Ronning et al. in Thrombosis Research 1996, 84, 73-81.

Sequence of FXa (P00742 235-488 limits assumed): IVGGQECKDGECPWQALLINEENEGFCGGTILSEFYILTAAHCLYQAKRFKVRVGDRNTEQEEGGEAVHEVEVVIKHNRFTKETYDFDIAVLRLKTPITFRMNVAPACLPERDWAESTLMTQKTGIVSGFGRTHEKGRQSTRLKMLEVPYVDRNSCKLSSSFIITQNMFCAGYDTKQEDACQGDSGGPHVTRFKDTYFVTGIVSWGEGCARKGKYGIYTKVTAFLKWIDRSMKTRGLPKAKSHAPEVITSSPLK
Sequence of FXa (P00742 41-179 limits assumed): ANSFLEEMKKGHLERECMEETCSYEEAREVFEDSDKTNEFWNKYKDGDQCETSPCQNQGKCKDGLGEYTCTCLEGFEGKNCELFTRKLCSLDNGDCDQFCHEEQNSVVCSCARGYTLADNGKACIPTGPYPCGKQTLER

melting point | IC50 (FXa) [nM] | IC50 (TF/FVIIa) [nM] | SMILES
165 to 170 °C (dec.) | 180 | 91 | O=C(Nc1ccc(Cl)cc1)NN(C(=O)Nc1ccc(N2CCCCC2=O)cc1)c1ccccc1 [No. 1, N-(4-Chlorophenylaminocarbonyl)-N′-[4-(2-oxo-1-piperidyl)phenylaminocarbonyl]-N′-phenylhydrazine]
170 to 175 °C | 670 | 340 | O=C(Nc1ccc(Cl)cc1)NN(C(=O)Nc1ccc(N2CCCCC2=O)cc1)c1ccc(Cl)cc1 [compound 2]
> 250 °C | 390 | 190 | CS(=O)(=O)c1ccccc1-c1ccc(NC(=O)N(NC(=O)Nc2ccc(Cl)cc2)c2ccccc2)cc1 [compound 3]
